From patent US20100152136A1 (priority 2006, published 2010)

Tested on: newly diagnosed multiple myeloma patients
Assay: Total Therapy 2 (TT2) clinical trial, multivariate Cox regression of overall and event-free survival
Format: in vivo, human
Experimental: Purified plasma cells (PCs) were obtained from newly diagnosed multiple myeloma patients who were treated on NIH-sponsored clinical trials UARK 98-026 (Total Therapy 2, TT2) (n=351) and UARK 03-033 (Total Therapy 3, TT3) (n=214). Both protocols utilized induction regimens, followed by melphalan-based tandem autotransplants, consolidation chemotherapy and maintenance treatment.
The Kaplan-Meier method was to estimate OS. OS was defined as the time from the date of registration until death from any cause; survivors were censored at the time of last contact. Significance analysis of microarray (SAM) was used to determine statistically significant expression changes of genes in high- and low-TP53-expressing MM plasma cells. Univariate and multivariate analyses of prognostic factors were performed with the Cox regression.
The details of TT2 and TT3 protocols and their overall results have been reported previously; however, results related to 177 additional patients treated in a TT3 successor protocol to validate bortezomib pharmaco-genomic data have not been reported. The median follow-up times for TT2 and TT3 are 7.2 and 3.9 years, respectively. Both protocols and their revisions had been approved by the Institutional Review Board, and patients had signed a written informed consent in keeping with institutional and federal policies.
The Kaplan-Meier method was used to estimate overall and event-free survival with group comparisons made using the log-rank test. Overall survival and event-free survival were measured from the date of registration until death from any cause and disease relapse or death from any cause, respectively; survivors were censored at the time of last contact. Univariate and multivariate analyses of prognostic factors were carried out using Cox regression models.

[1] = TT2, randomization to thalidomide, 170/341 patients, multivariate analysis, median follow-up 7.2 years (Table 5)

O=C1CCC(N2C(=O)c3ccccc3C2=O)C(=O)N1 (stereo not shown) [Thalidomide]
effect of randomization on event-free and overall survival (TT2, in words): beneficial effect
Event-Free Survival HR (95% CI) (TT2, randomization to thalidomide, 166/334 patients, multivariate analysis (Table 2)): 0.75 (0.60, 0.93)
Event-free survival HR [1]: 0.61
Overall Survival HR [1]: 0.70
